# Article PMC6357742, “Porphyromonas gingivalis in Alzheimer’s disease brains: Evidence for disease causation and treatment with small-molecule inhibitors” (Science Advances, 2019)
# Legend:
# cathepsin S = cathepsin S (Homo sapiens, UniProt P25774); assay: Cellular protease profiling; assay type: biochemical
# calpain = assay: Cellular protease profiling; assay type: biochemical
# tryptase = assay: Cellular protease profiling; assay type: biochemical
# thrombin = thrombin (Homo sapiens, UniProt P00734); assay: Cellular protease profiling; assay type: biochemical
# plasmin = plasmin (Homo sapiens, UniProt P00747); assay: Cellular protease profiling; assay type: biochemical
# FXa = FXa (Homo sapiens, UniProt P00742); assay: Cellular protease profiling; assay type: biochemical
# FVIIa = molecular target: T1, FVIIa (Homo sapiens, UniProt P08709); assay: Cellular protease profiling; assay type: biochemical
# T1 sequence (P08709 213-466 limits assumed): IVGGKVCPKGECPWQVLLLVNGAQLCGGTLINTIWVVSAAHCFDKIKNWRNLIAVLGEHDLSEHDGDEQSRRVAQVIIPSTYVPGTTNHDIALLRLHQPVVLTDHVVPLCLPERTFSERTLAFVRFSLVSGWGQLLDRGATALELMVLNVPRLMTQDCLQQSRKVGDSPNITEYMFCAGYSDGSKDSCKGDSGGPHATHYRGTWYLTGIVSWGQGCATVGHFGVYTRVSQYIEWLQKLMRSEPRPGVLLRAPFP
# T1 sequence (P08709 61-212 partner limits assumed): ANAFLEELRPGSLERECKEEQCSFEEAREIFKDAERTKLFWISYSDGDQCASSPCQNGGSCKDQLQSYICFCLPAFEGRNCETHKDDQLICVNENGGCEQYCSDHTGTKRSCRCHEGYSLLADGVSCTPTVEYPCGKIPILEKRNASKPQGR
# BACE1 = BACE1 (Homo sapiens, UniProt P56817); assay: Cellular protease profiling; assay type: biochemical
# DPP4 = DPP4 (Homo sapiens, UniProt P27487); assay: Cellular protease profiling; assay type: biochemical
# proteasome = assay: Cellular protease profiling; assay type: biochemical
# [1] = tested on: deubiquitinating peptidases; assay: Cellular protease profiling; assay type: biochemical
# caspase family enzymes = assay: Cellular protease profiling; assay type: biochemical
# Kgp [2] = molecular target: T2, Kgp (Porphyromonas gingivalis, UniProt B2RLK2); assay type: biochemical, P. gingivalis; details: recovery of enzyme activity following dilution of enzyme/inhibitor complexes
# P. gingivalis W83 = assay: P. gingivalis oral infection in mice, Experiment 3 (brain qPCR, Aβ1–42 and TNFα ELISA); assay type: in vivo, BALB/c mice; details: days 36 to 70
# Kgp [3] = molecular target: Kgp (Porphyromonas gingivalis, UniProt Q51817); assay type: binding, P. gingivalis
# Kgp [4] = molecular target: T2, Kgp; assay type: binding, P. gingivalis; details: human oral subgingival plaque, preincubation with COR388
# P. gingivalis [5] = assay: Kgp-dependent growth of P. gingivalis in defined medium; assay type: cell-based; details: 500 nM, over 43 hours
# P. gingivalis [6] = assay type: cell-based
# [7] = Oral pharmacokinetic properties and CNS penetration; details: in vivo
# [8] = tested on: SH-SY5Y cells infected with P. gingivalis W83; assay: AlamarBlue viability of SH-SY5Y cells challenged with P. gingivalis; assay type: cell-based, human; details: W83 strain, MOI of 400, 48 hours
# [9] = tested on: differentiated SH-SY5Y cells exposed to RgpB and Kgp; assay: Gingipain-induced aggregation of differentiated SH-SY5Y cells; assay type: cell-based, human; details: pretreatment of gingipains; RgpB and Kgp 10 μg/ml, 24 hours
# P. gingivalis [10] = assay: Antimicrobial effects of Aβ on P. gingivalis (LIVE/DEAD BacLight); assay type: cell-based; set-up: dose or concentration left out as unconfirmed; details: 37°C, anaerobic, 24 hours
# [11] = 10 and 30 mg/kg oral twice daily
compound,measurement,setting,value
NCCCC[C@H](NC(=O)C1CCCC1)C(=O)COc1c(F)ccc(F)c1F [COR388],IC50,cathepsin S,> 10 µM
same,IC50,calpain,> 10 µM
same,IC50,tryptase,> 10 µM
same,IC50,thrombin,> 10 µM
same,IC50,plasmin,> 10 µM
same,IC50,FXa,> 10 µM
same,IC50,FVIIa,> 10 µM
same,IC50,BACE1,> 10 µM
same,IC50,DPP4,> 10 µM
same,IC50,proteasome,> 10 µM
same,IC50,[1],> 10 µM
same,IC50,caspase family enzymes,> 10 µM
same,mode of inhibition,Kgp [2],irreversible binding kinetics
same,Aβ1–42 level in brain tissue,P. gingivalis W83; 3 mg/kg oral twice daily,did not reduce
same,P. gingivalis load in brain tissue,P. gingivalis W83; 3 mg/kg oral twice daily,some reduction
same,TNFα level in brain tissue,P. gingivalis W83; 3 mg/kg oral twice daily,did not reduce
same,Aβ1–42 level in brain tissue compared to infected vehicle,P. gingivalis W83; [11],reduced
same,P. gingivalis load in brain tissue compared to infected vehicle,P. gingivalis W83; [11],reduced
same,TNFα level in brain tissue compared to infected vehicle,P. gingivalis W83; [11],reduced
same,Kgp target engagement (COR553 probe binding after preincubation),Kgp [3],block of COR553 activity probe binding
same,Kgp target engagement ex vivo (COR553 probe binding after preincubation),Kgp [4],blocked probe binding to the active site
same,growth of P. gingivalis in defined growth medium,P. gingivalis [5],inhibited the growth
same,development of resistance on repeat passaging,P. gingivalis [6],did not develop
same,CNS penetration,[7],significant CNS penetration
same,oral bioavailability / oral pharmacokinetics,[7]; po,superior oral pharmacokinetic
C[C@H]1c2cccc(O)c2C(=O)C2=C(O)[C@]3(O)C(=O)C(C(N)=O)=C(O)[C@@H](N(C)C)[C@@H]3[C@@H](O)[C@@H]21 [doxycycline],protection against P. gingivalis–induced cell death,[8],did not protect the cells
NC(=O)CI [iodoacetamide],gingipain-induced cell aggregation,[9],prevented gingipain-induced aggregation
COc1c(N2C[C@@H]3CCCN[C@@H]3C2)c(F)cc2c(=O)c(C(=O)O)cn(C3CC3)c12 [moxifloxacin],protection against P. gingivalis–induced cell death,[8],did not protect the cells
same,development of resistance on repeat passaging,P. gingivalis [6],complete resistance
same,increase of minimum inhibitory concentration (MIC) on passaging,P. gingivalis [6]; 12 passages,over 1000 fold
CC(C)[C@H](O)C(=O)N[C@@H](C)C(=O)N[C@@H]1C(=O)N(C)CCc2ccccc21 [semagacestat],protection against P. gingivalis–induced cell death,[8],no protective effect
"Aβ1–42: Recombinant Aβ (1-42) Ultra-Pure, Ammonium Hydroxide (rProtein)",viability of P. gingivalis,P. gingivalis [10],decreased viability
